Results from patent US20260242340A1, “COMPOUNDS AND METHODS FOR TREATING PROTEIN AGGREGATION DISEASES” (ACELOT, INC., priority 2023, published 2026).

Legend:
alpha-synuclein = target: T1, alpha-synuclein (Homo sapiens, UniProt P37840); experiment: Alpha-synuclein thioflavin T assay; type: biochemical; details: 250 μM compound on pre-formed aggregates of 50 μM alpha-synuclein, 24 hours; 100% = alpha synuclein + DMSO
T1 construct: purchased Proteos RP-003
Method: Recombinant alpha-synuclein monomeric protein was procured from Proteos (catalog no. RP-003, 10 mg/ml or 700 μM concentration). Prior to aggregation, the protein was centrifuged at 10,000 rpm for 5 minutes to remove any pre-existing aggregates. The stock solution was then diluted to 50 μM concentration in filtered 1×PBS and allowed to aggregate with continuous shaking at 1000 rpm on a thermomixer for 96 hours at 37° C. After 96 hours, the ThT fluorescence was checked for the sample to confirm aggregate formation using ThT, a well-known amyloid marker dye. The ThT active aggregates were then used for high-throughput small molecule inhibitor screening. For screening small molecule disaggregators, 10 mM DMSO stock solutions of small molecules were diluted to 250 μM in the reaction mix containing 20 μM ThT and aggregates formed by 50 μM alpha-synuclein. As a positive/vehicle control, 100% DMSO stock was diluted to 2.5% to match the DMSO in the small molecule conditions. ThT fluorescence assay was performed for 24 hours with 3 replicates per sample in a 384 well plate (Corning low volume black/clear flat bottom) on a microplate reader (Molecular Devices SpectraMax iD5 or BioTek Agilent Synergy Neo2) using excitation wavelength of 440 nm and emission wavelength of 490 nm. The temperature was maintained at 37° C. and the plate was continuously shaken throughout the measurement. All data were plotted and analyzed in GraphPad Prism.

Aβ 1-42 = target: T2, Aβ 1-42 (Homo sapiens, UniProt P05067); experiment: Aβ42 thioflavin T assay; type: biochemical; details: 50 μM compound, 5 μM Aβ 1-42, ThT RFU at 15 hours; 100% = Aβ + DMSO; read-out: Aβ42 % aggregation at 50 μM
T2 construct: The monomeric form of Aβ 1-42 (rPeptide, A1170-025) film; purchased rPeptide A1170-025
Method: The effect of compounds on fibril formation by Aβ 1-42 was screened using a thioflavin T (ThT) fluorescence assay in a 96-well plate format. The monomeric form of Aβ 1-42 (rPeptide, A1170-025) film was diluted with 10 mM NaOH to form a 1 mg/ml stock solution. This stock solution was then further diluted with cell culture grade water (Cytiva, SH30529.01) and 10×PBS (VWR, 97063-660) to a working concentration of 100 μM in 1×PBS on ice. Compounds were initially dissolved in 100% DMSO (MilliporeSigma, D2650) at room temperature to make a 10 mM stock and stored at −20° C. prior to the experiment. On the day of the experiment, the stock solution was diluted with 1×PBS to a concentration of 500 μM, containing 5% DMSO. The reaction mixture, containing 10 μM ThT […], 5 μM Aβ 1-42, and 1×PBS was prepared in 15 ml Falcon centrifuge tubes (Corning, 352070) and kept on ice during preparation. The reaction mixture was then dispensed into multiple wells of a 96-well half-area, low-binding polyethylene non-treated plate (Corning, 3880) with a clear bottom, at 90 μL per well. To each well, 10 μL of 500 μM compound stock was added, with three replicates per compound. To account for the presence of DMSO, 5% DMSO in 1×PBS was used as the vehicle control. The positive control consisted of 10 μM ThT, 5 μM Aβ 1-42, and 0.5% DMSO in 1×PBS, while the negative control consisted of 10 μM ThT and 0.5% DMSO in 1×PBS. The plates were sealed with polyester sealing tape (VWR, 89134-430) to prevent evaporation and then placed in a plate reader (Molecular Devices SpectraMax ID5) at 37° C. without agitation. ThT fluorescence was measured through the bottom of the plate using 440- and 480-nm excitation and emission filters for 15 hours at 0.5-hour intervals. Each well was scanned at 5 points with a 1.25 mm distance between points. The relative fluorescence unit (RFU) at 15 hours was used to rank the percent of aggregation for all tested compounds and controls.

[1] = target: T3, TDP-43 cytosolic aggregates (TDP-43-tGFP-U2OS cell line) (Homo sapiens, UniProt Q13148); experiment: TDP-43 cytoplasmic aggregation assay; type: cell-based; details: 10 μM compound; TDP-43-tGFP-U2OS cells, sodium arsenite; lower = more potent
T3 construct: expressed in transfected cells; host or cells: U2OS (recombinant, IPTG-inducible TDP-43 expression)
Method: Recombinant TDP-43-tGFP-U2OS cell line was thawed (2×10^6 cells per T75) and was maintained in DMEM-F12 supplemented with 10% FBS at 37° C. in a humidified 5% CO2 atmosphere. Cells were plated in 96-well plates with a density of 10,000 cells (+/−2000 cells) per well. Cells were incubated with the test compounds and isopropyl β-D-1-thiogalactopyranoside (IPTG) 1 mM to induce TDP43 expression for 24 hours. The assays were carried out in triplicate. Cells were treated with 125-250 μM of sodium arsenite for 120 min and TDP-43 punctae formation was quantified in both cell cytoplasm and cell nucleus, in living cells. The nuclei were stained using Hoechst (0.5 μg/ml) and the fluorescence was measured using a Cell Insight High-Content Bioimager from Thermo Fisher. To detect the Hoechst, the filters used were 380/10 and 460/10 nm for excitation and emission, respectively, and to detect the TDP-43 punctae, the filters were 488/20 and 520/20 nm, respectively. The images were obtained with an objective of 20×. Cell quantification was performed delimitating the region of interest of the nuclei and after quantification the average of each triplicate was performed. For granule quantification the spot detector application from Cell Software delimitated 2 regions of interest, the nuclei and cytosol. This software quantified the average number of granules per nuclei and the average number of granules per cytosol in each well.

T2 sequence (P05067 672-713 limits assumed): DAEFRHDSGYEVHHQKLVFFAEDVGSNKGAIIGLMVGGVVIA
T3 sequence (Q13148 whole entry): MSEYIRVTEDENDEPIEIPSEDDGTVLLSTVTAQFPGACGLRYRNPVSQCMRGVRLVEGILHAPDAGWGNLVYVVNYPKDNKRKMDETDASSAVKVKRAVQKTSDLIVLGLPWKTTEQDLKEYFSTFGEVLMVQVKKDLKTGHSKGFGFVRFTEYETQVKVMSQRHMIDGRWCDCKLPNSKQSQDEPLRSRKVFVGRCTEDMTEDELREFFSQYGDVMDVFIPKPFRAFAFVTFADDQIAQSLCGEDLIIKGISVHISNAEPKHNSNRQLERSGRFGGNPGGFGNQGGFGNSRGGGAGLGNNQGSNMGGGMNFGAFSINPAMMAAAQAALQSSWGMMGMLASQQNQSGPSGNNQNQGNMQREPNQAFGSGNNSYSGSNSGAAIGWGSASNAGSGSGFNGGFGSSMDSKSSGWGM

% alpha synuclein aggregation as measured on ThT (alpha-synuclein) [%]	activity at 50 µM (Aβ 1-42) [%]	TDP-43 % cytosolic aggregates at 10 μM [1] [%]	SMILES
77.8	60.9	34.5	CC(=O)Nc1ccc2c(c1)CCN(CCc1cccc(Cl)c1)C2 [Compound 1]
95.6	73.5	10.2	CC(=O)Nc1ccc2c(c1)CCN(CCc1ccc(F)c(Cl)c1)C2 [Compound 2]
